Like-named read-outs stand apart in the source and are kept apart here. Numbered stars: 1 amine (or outer) side, 2 acyl side, 3 side chain; on linkers, the order of the positions; unused ones are H or OH. Bridge positions count the residues as written; N and C are the ends. Square brackets hold non-standard residues; d marks the D form. Peptide text beside a SMILES is read from it. I, II: the chains in the order shown. ξ: configuration not given here. Phe(4-tBu) = CC(C)(C)c1ccc(C[C@H](N)C(=O)O)cc1; Diglycolyl = O=C(COCC(=O)[*:2])[*:1]; NMeR = CN[C@@H](CCCNC(=N)N)C(=O)O; β3hE = N[C@@H](CCC(=O)O)CC(=O)O; Thr(3ξ) = CC(O)[C@H](N)C(=O)O; Pen = CC(C)(S)[C@H](N)C(=O)O
Assays:
α4β7 integrin = α4β7 integrin (Homo sapiens, UniProt P13612+P26010); test: Schild analysis, MAdCAM binding to immobilized α4β7 integrin by ELISA; settings: global-fit Schild analysis
Experimental: Schild analysis was used to determine if Peptide X blocked MAdCAM binding to α4β7 integrin by a simple competitive mechanism. […] Based on the dose-response shifts, global-fit Schild analysis was used to determine the Schild slope and equilibrium dissociation constant (KB). The slope was ˜1, which indicated the inhibition is orthosteric antagonism with respect to MAdCAM, and not allosteric antagonism. […] The estimated KB value was 1 nM, which was similar to other Peptide X potency values in different assays.

αEβ7 integrin = test: FACS binding in cynomolgus monkey blood (α4β7 / αEβ7 expressing cells); assay type: cell-based; settings: cynomolgus monkey blood
Experimental: Blood from cynomolgus monkeys was also analyzed by FACS.
Binding to αEβ7 integrin in cyno blood was also tested. Cyno blood was incubated with 1 nM Peptide X-Alexa 647, and cells expressing α4β7 or αEβ7 were analyzed by FACS. […] Binding to α4β7 was specific, because it could be blocked in the presence of a large excess (1 uM) of unlabeled Peptide X. Therefore under these conditions, it was concluded that Peptide X binds α4β7, not αEβ7.

α4β1 = α4β1 (Homo sapiens, UniProt P05556+P13612); test: PBMC Memory T Cell Adhesion Assay, adhesion to VCAM-1; assay type: cell-based; settings: memory T cells isolated from human PBMC donors; read-out: IC50 (nM), memory T cells, Integrin α4β1, Ligand VCAM-1
Experimental: Fresh CD4+/CD45RO+ memory T cells were isolated from human peripheral blood mononuclear cell (PBMC) donors by Aragen Bioscience Inc. (Morgan Hill, Calif.). The assay plate was prepared using IgG Fc capture antibody (donkey anti human) immobilized at 500 ng/well in 50 mM sodium bicarbonate buffer, pH 9.5, ON, 4C onto a Greiner Fluotrac plate (100 ul per well). The plate was rinsed two time with Blocking Buffer (25 mM Tris HCl, pH7.5, 150 mM NaCl, 1.5% BSA, 0.05% Tween), and blocked with Blocking Buffer for 2 hours at 37 C or 5 hours at RT using 200 ul per well. The Blocking Buffer was removed and either MAdCAM-1 or VCAM-1 at 400 ng/well in Blocking Buffer was added and the plate incubated overnight at 4C (100 ul per well). The plate was washed two times with Blocking Buffer, and rinsed once with 200 ul Binding Media (DMEM phenol red free, 10 mM HEPES, 1×Na pyruvate, 1× Glutamine, and supplemented with 1 mM MnCl2 prior to use). To prepare cells, approximately 25 million CD4+/CD45RO+ memory T cells were counted by trypan blue exclusion using a haemocytometer to determine viability and cell count. […] Fluorescence intensity was measured using a Molecular Devices Gemini EM Fluorescent Plate Reader (Ex 485/Em530, Bottom Read, Reading Sensitivity=20). IC50 curves are generated using Graph Pad Prism and the curves analyzed using analyzed using a non-linear regression (four parameters) algorithm. […]

[1] = Tissue exposure after oral administration, 8 days; assay type: in vivo; settings: cynomolgus monkey; for level at time molar at 4 h: 4 hours after the last dose
Experimental: To determine tissue exposure following oral administration of Peptide X, Cynomolgus monkeys were dosed with Peptide X PO QD for 8 days at 12.5 mg/kg, 25 mg/kg or 75 mg/kg. The vehicle was 50 mM phosphate buffer, pH 7. Oral bioavailability in cyno (% F) was about 0.3%. Samples were collected 4 hours after the last dose.

α4β7 integrin, sequence (P13612 34-977 limits assumed): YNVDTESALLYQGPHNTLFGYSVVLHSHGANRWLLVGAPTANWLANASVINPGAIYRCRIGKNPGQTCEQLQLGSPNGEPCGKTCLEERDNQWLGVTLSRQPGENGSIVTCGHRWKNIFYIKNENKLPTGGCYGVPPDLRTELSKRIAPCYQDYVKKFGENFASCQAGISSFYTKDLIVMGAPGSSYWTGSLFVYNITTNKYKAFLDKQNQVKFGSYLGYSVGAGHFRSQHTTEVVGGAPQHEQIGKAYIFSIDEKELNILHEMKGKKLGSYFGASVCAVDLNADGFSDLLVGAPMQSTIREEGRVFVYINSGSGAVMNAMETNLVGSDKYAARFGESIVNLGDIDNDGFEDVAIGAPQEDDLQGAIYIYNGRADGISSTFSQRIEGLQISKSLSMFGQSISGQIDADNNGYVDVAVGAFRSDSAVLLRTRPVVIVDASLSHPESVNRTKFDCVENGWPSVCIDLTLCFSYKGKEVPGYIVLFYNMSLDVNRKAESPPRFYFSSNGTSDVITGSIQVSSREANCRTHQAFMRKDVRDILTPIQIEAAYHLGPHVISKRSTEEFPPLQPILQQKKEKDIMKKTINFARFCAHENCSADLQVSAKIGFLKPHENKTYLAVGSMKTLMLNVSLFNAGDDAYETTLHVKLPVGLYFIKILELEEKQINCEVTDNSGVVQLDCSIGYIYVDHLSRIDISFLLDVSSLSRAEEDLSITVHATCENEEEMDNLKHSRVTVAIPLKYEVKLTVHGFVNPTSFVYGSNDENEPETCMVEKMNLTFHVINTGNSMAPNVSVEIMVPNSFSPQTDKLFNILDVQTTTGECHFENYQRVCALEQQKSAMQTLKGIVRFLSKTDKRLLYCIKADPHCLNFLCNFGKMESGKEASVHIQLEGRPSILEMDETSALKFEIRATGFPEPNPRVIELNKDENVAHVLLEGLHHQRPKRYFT
α4β7 integrin, sequence (P26010 20-723 limits assumed): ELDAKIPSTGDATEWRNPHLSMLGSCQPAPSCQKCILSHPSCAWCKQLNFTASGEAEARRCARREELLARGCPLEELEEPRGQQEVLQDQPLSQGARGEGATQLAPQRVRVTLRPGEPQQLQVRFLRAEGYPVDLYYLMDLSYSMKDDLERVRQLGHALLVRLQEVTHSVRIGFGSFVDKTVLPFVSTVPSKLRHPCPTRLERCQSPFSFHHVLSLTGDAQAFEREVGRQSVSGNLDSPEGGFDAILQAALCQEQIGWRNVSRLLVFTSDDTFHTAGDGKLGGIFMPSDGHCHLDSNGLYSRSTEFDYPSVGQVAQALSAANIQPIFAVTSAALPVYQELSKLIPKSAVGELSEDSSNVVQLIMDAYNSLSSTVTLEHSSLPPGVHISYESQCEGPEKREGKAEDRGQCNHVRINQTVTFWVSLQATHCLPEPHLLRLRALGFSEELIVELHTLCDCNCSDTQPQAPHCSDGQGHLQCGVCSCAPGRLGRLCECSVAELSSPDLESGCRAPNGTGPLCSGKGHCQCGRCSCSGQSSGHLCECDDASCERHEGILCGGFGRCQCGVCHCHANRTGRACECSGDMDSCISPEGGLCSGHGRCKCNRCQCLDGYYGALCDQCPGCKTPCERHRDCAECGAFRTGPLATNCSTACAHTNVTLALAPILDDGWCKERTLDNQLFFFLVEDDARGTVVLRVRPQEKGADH
α4β1, sequence (P13612 34-1032): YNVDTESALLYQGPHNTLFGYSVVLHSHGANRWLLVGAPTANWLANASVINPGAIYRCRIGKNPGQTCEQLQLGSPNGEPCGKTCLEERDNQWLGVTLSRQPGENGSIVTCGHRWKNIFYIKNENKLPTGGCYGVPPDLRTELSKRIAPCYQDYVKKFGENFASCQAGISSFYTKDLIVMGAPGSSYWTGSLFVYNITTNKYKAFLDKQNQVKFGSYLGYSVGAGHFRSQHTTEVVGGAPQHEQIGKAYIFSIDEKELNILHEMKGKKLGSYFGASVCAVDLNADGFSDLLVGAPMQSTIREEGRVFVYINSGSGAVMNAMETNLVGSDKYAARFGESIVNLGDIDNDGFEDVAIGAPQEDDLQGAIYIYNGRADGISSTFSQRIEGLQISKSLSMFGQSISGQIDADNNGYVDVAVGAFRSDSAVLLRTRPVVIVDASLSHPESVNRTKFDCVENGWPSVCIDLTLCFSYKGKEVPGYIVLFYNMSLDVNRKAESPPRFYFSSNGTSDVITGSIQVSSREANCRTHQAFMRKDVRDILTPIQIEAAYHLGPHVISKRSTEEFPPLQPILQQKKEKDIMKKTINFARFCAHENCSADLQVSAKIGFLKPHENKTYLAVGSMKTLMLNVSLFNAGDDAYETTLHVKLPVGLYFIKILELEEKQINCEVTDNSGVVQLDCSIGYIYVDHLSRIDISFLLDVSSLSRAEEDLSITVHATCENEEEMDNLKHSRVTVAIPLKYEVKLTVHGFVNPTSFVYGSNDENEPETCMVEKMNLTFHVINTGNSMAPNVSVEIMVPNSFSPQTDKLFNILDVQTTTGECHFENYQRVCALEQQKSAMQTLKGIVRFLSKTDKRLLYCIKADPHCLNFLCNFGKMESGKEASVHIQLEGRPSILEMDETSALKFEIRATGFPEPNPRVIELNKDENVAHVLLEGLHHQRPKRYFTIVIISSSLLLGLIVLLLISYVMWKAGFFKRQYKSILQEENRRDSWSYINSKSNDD
α4β1, sequence (P05556 21-798): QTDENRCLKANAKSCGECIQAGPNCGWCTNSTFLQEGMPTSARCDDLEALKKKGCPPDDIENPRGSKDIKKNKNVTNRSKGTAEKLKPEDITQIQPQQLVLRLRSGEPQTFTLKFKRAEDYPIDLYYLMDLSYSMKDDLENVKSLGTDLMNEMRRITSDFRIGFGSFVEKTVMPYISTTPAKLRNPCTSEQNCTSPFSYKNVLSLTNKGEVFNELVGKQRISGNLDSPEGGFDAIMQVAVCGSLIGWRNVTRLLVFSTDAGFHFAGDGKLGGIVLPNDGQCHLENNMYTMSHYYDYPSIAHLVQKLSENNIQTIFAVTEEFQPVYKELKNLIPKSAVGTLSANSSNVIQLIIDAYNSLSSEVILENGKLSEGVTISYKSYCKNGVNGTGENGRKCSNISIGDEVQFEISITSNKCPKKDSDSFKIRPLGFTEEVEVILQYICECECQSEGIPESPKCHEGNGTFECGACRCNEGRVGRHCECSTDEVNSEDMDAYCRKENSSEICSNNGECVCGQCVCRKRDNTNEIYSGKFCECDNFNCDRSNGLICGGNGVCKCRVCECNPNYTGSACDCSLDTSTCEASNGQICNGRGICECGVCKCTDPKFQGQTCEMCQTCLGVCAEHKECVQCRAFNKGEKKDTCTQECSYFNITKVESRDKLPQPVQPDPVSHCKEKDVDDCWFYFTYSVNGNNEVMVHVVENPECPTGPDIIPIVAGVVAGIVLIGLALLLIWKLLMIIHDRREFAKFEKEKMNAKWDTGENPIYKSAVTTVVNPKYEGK

In the case of `CC(=O)N[C@@H]1C(=O)N(C)[C@@H](CCCNC(=N)N)C(=O)N[C@@H](CO)C(=O)N[C@@H](CC(=O)O)C(=O)N[C@@H](C(C)O)C(=O)N[C@@H](CC(C)C)C(=O)N[C@H](C(=O)N[C@@H](Cc2ccc(C(C)(C)C)cc2)C(=O)N[C@@H](CCC(=O)O)CC(=O)N[C@H](CCCCNC(=O)COCC(=O)NCCCC[C@@H](NC(=O)C[C@H](CCC(=O)O)NC(=O)[C@H](Cc2ccc(C(C)(C)C)cc2)NC(=O)[C@H]2NC(=O)[C@H](CC(C)C)NC(=O)[C@H](C(C)O)NC(=O)[C@H](CC(=O)O)NC(=O)[C@H](CO)NC(=O)[C@H](CCCNC(=N)N)N(C)C(=O)[C@@H](NC(C)=O)C(C)(C)SSC2(C)C)C(N)=O)C(N)=O)C(C)(C)SSC1(C)C` (stereo partly drawn) [Peptide X, [Ac-Pen-(N-Me-Arg)-Ser-Asp-Thr-Leu-Pen-(Phe(4-tBu))-(β-homoGlu)-(D-Lys)]2-DIG] (I: Ac-[Pen][NMeR]SD[Thr(3ξ)]L[Pen][Phe(4-tBu)][β3hE][dK]-NH2 / II: Ac-[Pen][NMeR]SD[Thr(3ξ)]L[Pen][Phe(4-tBu)][β3hE][dK]-NH2; disulfide I:1-I:7, II:1-II:7; linker I:10-II:10 via Diglycolyl), the Schild slope (α4β7 integrin) is reported as about 1, the Kb (α4β7 integrin; estimated, read-out: equilibrium dissociation constant (KB)) is reported as 1 nM and the “binding site on α4β7 relative to vedolizumab” value (αEβ7 integrin) is reported as “binds to a site on α4β7 that is distinct from the binding site for vedolizumab”. The IC50 (α4β1) was over 100000 nM, the level at time molar at 4 h ([1]; colon, 12.5 mg/kg PO QD 8 days, read-out: Peptide X exposure, Colon) was 4160 nM and the level at time molar at 4 h ([1]; colon, 25 mg/kg PO QD 8 days, read-out: Peptide X exposure, Colon) was 1550 nM. For the same molecule, the level at time molar at 4 h ([1]; colon, 75 mg/kg PO QD 8 days, read-out: Peptide X exposure, Colon) was 15500 nM, the bioavailability ([1]; in vivo, oral, read-out: Oral bioavailability in cyno (% F)) was about 0.3% and the level at time molar at 4 h ([1]; mesenteric lymph node, 12.5 mg/kg PO QD 8 days, read-out: Peptide X exposure, Mesenteric Lymph Node) was 1500 nM. For the same molecule, the level at time molar at 4 h ([1]; mesenteric lymph node, 25 mg/kg PO QD 8 days, read-out: Peptide X exposure, Mesenteric Lymph Node) was 138 nM, the level at time molar at 4 h ([1]; mesenteric lymph node, 75 mg/kg PO QD 8 days, read-out: Peptide X exposure, Mesenteric Lymph Node) was 1980 nM and the level at time molar at 4 h ([1]; plasma, 12.5 mg/kg PO QD 8 days, read-out: Peptide X exposure, Plasma) was 2 nM. The level at time molar at 4 h ([1]; plasma, 25 mg/kg PO QD 8 days, read-out: Peptide X exposure, Plasma) was 5 nM, the level at time molar at 4 h ([1]; plasma, 75 mg/kg PO QD 8 days, read-out: Peptide X exposure, Plasma) was 21 nM and the level at time molar at 4 h ([1]; small intestine, 12.5 mg/kg PO QD 8 days, read-out: Peptide X exposure, Small Intestine) was 661 nM. The level at time molar at 4 h ([1]; small intestine, 25 mg/kg PO QD 8 days, read-out: Peptide X exposure, Small Intestine) was 293 nM and the level at time molar at 4 h ([1]; small intestine, 75 mg/kg PO QD 8 days, read-out: Peptide X exposure, Small Intestine) was 7840 nM.

— patent US9809623B2, “α4β7 peptide monomer and dimer antagonists” (Protagonist Therapeutics, Inc., priority 2014, dated 2017)
